Tests used:
[1] = system: stem sections of a high rooting clone of E. globulus; assay: gene introduction test on high rooting clone of E. globulus, vector pIPT10; type: cell-based, Eucalyptus globulus; conditions: same manner as Example 3 (NAM 1 μM)
Method: (§1) Definite buds of a high rooting clone of E. globulus from Chile were aseptically grown using a medium prepared by adding 0.5 mg/l zeatin to the Y basal medium of Example 2, and the elongated stems were cut into sections of 5 mm to be used as samples for gene introduction and infected with the plasmid pIAH6-introduced Agrobacterium in the same manner as in Example 1. The sections after infection culturing were put on an EG basal agar medium (agar 8.5 g/l) supplemented with 500 mg/l ticarcillin and 1 μM of an auxin precursor analogue NAM, and the culturing was continued at 25° C. under light conditions of 30 to 40 μmol/m^2/s in light intensity while sub-culturing at an interval of 2 weeks using the same medium. Four months after the Agrobacterium infection, the redifferentiated adventitious buds were subjected to a GUS staining test in accordance with the above method of Jefferson et al., and the degree of formation of desired gene-introduced adventitious buds was judged. Using plasmid pIPT10 as the vector, a gene introduction test was carried out into a high rooting clone of E. globulus in the same manner as in Example 3.

[2] = system: populus hybrid strain Y63 stem sections; assay: populus hybrid gene introduction test, vector pIAH6, adventitious bud redifferentiation and multiple bud observation; type: cell-based, Populus sieboldii×Populus grandidentata; conditions: for B Adventitious bud differentiated (number of sections): 10 sections tested; for B/A Redifferentiation ratio / C/A Gene introduction ratio / C/B Selection efficiency: section basis; for number of redifferentiated adventitious buds into which the desired gene was introduced / total number of adventitious buds redifferentiated: bud basis; for C GUS + adventitious bud differentiated (number of sections): sections with bud judged as a multiple bud after culturing for 4 months
Method: A transformant was produced by carrying out gene introduction into a populus hybrid (Populus sieboldii×Populus grandidentata) by the method of the present invention using the pIAH6 used in Example 1 as the vector. A stem of an aseptic seedling of a populus hybrid strain […] That is, the pIAH6-introduced A. tumefaciens LBA4404 obtained in the same manner as in Example 1 was cultured overnight in the YEB liquid medium and then diluted to OD630=0.5 with Y basal medium, and the stem sections prepared in the above were soaked in this cell suspension. Next, each of these sections after removing excess cell suspension was co-cultured with Agrobacterium on an agar medium (agar 8 g/l) prepared by adding 40 mg/l acetosyringone to the Y basal medium, at 25° C. for 3 days in the dark to thereby be infect with the pIAH6-introduced Agrobacterium. In this case, a modified MS medium (10 mM NH4, 30 mM NO3) was supplemented with 20 g/l sucrose and used as the Y basal medium. The sections after infection culturing were put on the Y basal agar medium (agar 8 g/l) supplemented with 500 mg/l ticarcillin and 1 μM, 5 μM or 30 μM of an auxin precursor analogue NAM, followed by culturing at 25° C. under light conditions of 30 to 40 μmol/m^2/s in light intensity. […] That is, since the ipt gene is not introduced into the escape, the adventitious bud was redifferentiated by mere influence of a desired gene-introduced cell which was present adjacent thereto.

[3] = system: stem sections of a high rooting clone of E. globulus; assay: gene introduction test on high rooting clone of E. globulus, vector pIAH6, GUS staining; type: cell-based, Eucalyptus globulus; conditions: NAM 1 μM
Method: as §1, with “judged.” for “judged. Using plasmid pIPT10 as the vector, a gene introduction test was carried out into a high rooting clone of E. globulus in the same manner as in Example 3.”

NC(=O)Cc1cccc2ccccc12 [NAM, naphthaleneacetic acid amide]
redifferentiated individuals into which the desired gene was introduced [1]: not obtained
redifferentiation of adventitious buds [1]: not redifferentiated
B Adventitious bud differentiated (number of sections) ([2]; NAM 1 μM in medium): 7 number of sections
B/A Redifferentiation ratio ([2]; NAM 1 μM in medium): 70.0%
C/A Gene introduction ratio ([2]; NAM 1 μM in medium): 50.0%
C/B Selection efficiency ([2]; NAM 1 μM in medium): 71.4%
number of redifferentiated adventitious buds into which the desired gene was introduced ([2]; NAM 1 μM): 6
total number of adventitious buds redifferentiated ([2]; NAM 1 μM): 67
C GUS + adventitious bud differentiated (number of sections) ([2]; NAM 1 μM): 5 number of sections
B Adventitious bud differentiated (number of sections) ([2]; NAM 5 μM in medium): 6 number of sections
B/A Redifferentiation ratio ([2]; NAM 5 μM in medium): 60.0%
C/A Gene introduction ratio ([2]; NAM 5 μM in medium): 40.0%
C/B Selection efficiency ([2]; NAM 5 μM in medium): 66.7%
number of redifferentiated adventitious buds into which the desired gene was introduced ([2]; NAM 5 μM): 5
total number of adventitious buds redifferentiated ([2]; NAM 5 μM): 34
C GUS + adventitious bud differentiated (number of sections) ([2]; NAM 5 μM): 4 number of sections
B Adventitious bud differentiated (number of sections) ([2]; NAM 30 μM in medium): 0 number of sections
B/A Redifferentiation ratio ([2]; NAM 30 μM in medium): 0%
C/A Gene introduction ratio ([2]; NAM 30 μM in medium): 0%
C/B Selection efficiency ([2]; NAM 30 μM in medium): 0%
C GUS + adventitious bud differentiated (number of sections) ([2]; NAM 30 μM): 0 number of sections
sections whose buds had the desired gene introduced (GUS staining) ([3]; among 40 stem sections): 3 sections
sections from which adventitious buds were differentiated ([3]; among 40 stem sections, 4 months after infection): 5 sections
gene introduction ratio into adventitious buds ([3]; section basis): 7.5%
redifferentiation ratio of adventitious buds ([3]; section basis): 12.5%
selection efficiency ([3]; section basis): 60.0%

Source: patent US20040163143A1, “Method for efficiently producing transgenic plant using auxin precursor” (NIPPON PAPER INDUSTRIES CO., LTD., priority 2002, published 2004)
